Data: the supplement of paper PMC10307832

Tests used:
Experiment in all cases: relative viability (nuclei count vs DMSO), 5 days (fraction); higher = more cells survive
Palbociclib + Crizotinib = compound: CC(=O)c1c(C)c2cnc(Nc3ccc(N4CCNCC4)cn3)nc2n(C2CCCC2)c1=O [Palbociclib] + C[C@@H](Oc1cc(-c2cnn(C3CCNCC3)c2)cnc1N)c1c(Cl)ccc(F)c1Cl [Crizotinib] (partner 1 µM)
In short: (§1)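 Relative viability equals treated-well nuclei counts divided by vehicle-well nuclei counts. Counts came from 4× images of lung cancer cell lines grown in 1536-well plates for 5 days after pin-tool dosing on the day after seeding. Dosing used one drug alone or a fixed anchor-drug dose plus five library-drug doses (not always all listed) in √10 steps, and values are medians of duplicate plates.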

Palbociclib + Bortezomib = compound: CC(=O)c1c(C)c2cnc(Nc3ccc(N4CCNCC4)cn3)nc2n(C2CCCC2)c1=O [Palbociclib] + CC(C)C[C@H](NC(=O)[C@H](Cc1ccccc1)NC(=O)c1cnccn1)B(O)O [Bortezomib] (partner 0.002 µM)
In short: as §1

Palbociclib + Pemetrexed = compound: CC(=O)c1c(C)c2cnc(Nc3ccc(N4CCNCC4)cn3)nc2n(C2CCCC2)c1=O [Palbociclib] + Nc1nc2[nH]cc(CCc3ccc(C(=O)N[C@@H](CCC(=O)O)C(=O)O)cc3)c2c(=O)[nH]1 [Pemetrexed] (partner 0.2 µM)
In short: as §1

Palbociclib + Navitoclax = compound: CC(=O)c1c(C)c2cnc(Nc3ccc(N4CCNCC4)cn3)nc2n(C2CCCC2)c1=O [Palbociclib] + CC1(C)CCC(c2ccc(Cl)cc2)=C(CN2CCN(c3ccc(C(=O)NS(=O)(=O)c4ccc(N[C@H](CCN5CCOCC5)CSc5ccccc5)c(S(=O)(=O)C(F)(F)F)c4)cc3)CC2)C1 [Navitoclax] (partner 0.5 µM)
In short: as §1

Cell Line | relative viability (Palbociclib + Crizotinib; first compound 0.01 µM) | relative viability (Palbociclib + Crizotinib; first compound 0.03162 µM) | relative viability (Palbociclib + Crizotinib; first compound 0.1 µM) | relative viability (Palbociclib + Crizotinib; first compound 0.3162 µM) | relative viability (Palbociclib + Crizotinib; first compound 1 µM) | relative viability (Palbociclib + Bortezomib; first compound 0.01 µM) | relative viability (Palbociclib + Bortezomib; first compound 0.03162 µM) | relative viability (Palbociclib + Bortezomib; first compound 0.1 µM) | relative viability (Palbociclib + Bortezomib; first compound 0.3162 µM) | relative viability (Palbociclib + Bortezomib; first compound 1 µM) | relative viability (Palbociclib + Pemetrexed; first compound 0.01 µM) | relative viability (Palbociclib + Pemetrexed; first compound 0.03162 µM) | relative viability (Palbociclib + Pemetrexed; first compound 0.1 µM) | relative viability (Palbociclib + Pemetrexed; first compound 0.3162 µM) | relative viability (Palbociclib + Pemetrexed; first compound 1 µM) | relative viability (Palbociclib + Navitoclax; first compound 0.01 µM) | relative viability (Palbociclib + Navitoclax; first compound 0.03162 µM) | relative viability (Palbociclib + Navitoclax; first compound 0.1 µM) | relative viability (Palbociclib + Navitoclax; first compound 0.3162 µM) | relative viability (Palbociclib + Navitoclax; first compound 1 µM)
HCC-78 | 0.375 | 0.328 | 0.266 | 0.27 | 0.269 | 0.385 | 0.451 | 0.366 | 0.454 | 0.406 | 0.894 | 0.88 | 0.935 | 0.942 | 0.943 | 0.812 | 0.473 | 0.382 | 0.447 | 0.201
HCC-366 | 0.539 |  | 0.501 | 0.526 | 0.413 | 0.953 |  | 0.965 | 0.975 | 0.616 | 0.155 |  | 0.162 | 0.138 | 0.155 | 1.05 |  | 0.996 | 0.877 | 0.803
HCC-827 | 0.904 | 0.889 | 0.844 | 0.787 | 0.781 | 1.09 | 0.804 | 0.954 | 0.948 | 0.857 | 0.228 | 0.251 | 0.257 | 0.261 | 0.243 | 1.03 | 1.01 | 0.99 | 0.953 | 0.769
HOP-62 | 0.817 |  | 0.842 | 0.812 | 0.666 | 0.418 |  | 0.741 | 0.612 | 0.57 | 0.281 |  | 0.306 | 0.252 | 0.269 | 0.959 | 0.68 | 0.893 | 0.86 | 0.625
LC-2-ad | 0.417 |  | 0.421 | 0.44 | 0.328 | 1.03 |  | 0.779 | 0.704 | 0.469 | 0.271 | 0.289 | 0.318 | 0.392 | 0.363 | 0.555 |  | 0.402 | 0.383 | 0.337
LCLC-97TM1 | 0.345 |  | 0.257 | 0.313 | 0.259 | 0.729 | 0.514 | 0.396 | 0.319 | 0.138 | 0.201 |  | 0.168 | 0.156 | 0.167 | 0.401 |  | 0.27 | 0.294 | 0.281
LCLC-103H | 1.04 | 1.04 | 0.846 | 0.995 | 0.804 | 1.2 | 0.957 | 0.967 | 0.87 | 0.649 | 0.432 | 0.495 | 0.484 | 0.443 | 0.412 |  |  |  |  | 
LK-2 | 0.247 |  | 0.23 | 0.227 | 0.246 |  |  |  |  |  | 0.283 | 0.175 | 0.205 | 0.205 | 0.238 | 1.04 |  | 0.651 | 0.819 | 0.843
LOU-NH91 | 0.745 | 0.676 | 0.584 | 0.592 | 0.505 | 0.458 | 0.439 | 0.441 | 0.446 | 0.489 | 0.384 | 0.396 | 0.462 | 0.492 | 0.439 | 0.721 | 0.491 | 0.457 | 0.505 | 0.462
NCI-H358 | 0.453 | 0.479 | 0.335 | 0.332 | 0.187 |  |  |  |  |  | 0.167 | 0.163 | 0.166 | 0.186 | 0.135 |  |  |  |  | 
NCI-H522 |  |  |  |  |  |  |  |  |  |  | 1.2 | 0.504 | 0.99 | 1.02 | 0.932 |  |  |  |  | 
NCI-H650 | 0.619 |  | 0.446 | 0.58 | 0.475 | 0.912 |  | 0.61 | 0.637 | 0.377 | 0.946 |  | 0.7 | 0.725 | 0.483 |  |  |  |  | 
NCI-H661 | 0.957 | 0.779 | 0.674 | 0.694 | 0.556 | 0.874 | 0.584 | 0.588 | 0.649 | 0.521 | 0.878 | 0.792 | 0.645 | 0.571 | 0.416 |  |  |  |  | 
NCI-H727 | 0.78 | 0.642 | 0.45 | 0.41 | 0.404 | 0.963 | 0.649 | 0.491 | 0.465 | 0.469 |  |  |  |  |  | 0.429 | 0.406 | 0.324 | 0.266 | 0.326
NCI-H1299 | 0.938 | 0.895 | 0.86 | 0.7 | 0.631 | 1 | 0.871 | 0.925 | 0.873 | 0.72 |  |  |  |  |  | 1.09 | 0.949 | 0.909 | 0.846 | 0.715
NCI-H1395 |  |  |  |  |  |  |  |  |  |  | 0.797 | 0.812 | 0.786 | 0.838 | 0.65 | 1.22 | 1.17 | 0.924 | 0.943 | 0.656
NCI-H1563 | 0.852 | 0.832 | 0.813 | 0.759 | 0.67 | 0.824 | 0.98 | 0.869 | 0.796 | 0.577 | 0.836 | 0.729 | 0.746 | 0.795 | 0.629 |  |  |  |  | 
NCI-H1793 |  |  |  |  |  |  |  |  |  |  | 0.975 | 0.653 | 0.676 | 0.617 | 0.339 | 0.382 | 0.38 | 0.506 | 0.394 | 0.369
NCI-H1944 | 1.01 | 0.969 | 0.904 | 0.98 | 0.851 |  |  |  |  |  | 0.598 | 0.57 | 0.589 | 0.477 | 0.367 | 1.03 | 1.06 | 0.878 | 1.03 | 0.987
NCI-H2170 | 1.23 | 1.07 | 1.11 | 1.13 | 0.785 |  |  |  |  |  | 0.269 | 0.277 | 0.224 | 0.242 | 0.222 | 0.624 | 0.552 | 0.74 | 0.578 | 0.549
NCI-H2342 |  |  |  |  |  |  |  |  |  |  | 0.766 | 0.691 | 0.861 | 0.747 | 0.556 |  |  |  |  | 
SK-MES-1 | 0.943 | 0.952 | 0.724 | 0.714 | 0.45 |  |  |  |  |  | 0.857 | 0.802 | 0.665 | 0.596 | 0.363 | 1.36 | 1.22 | 0.821 | 0.745 | 0.477
SW 900 |  |  |  |  |  |  |  |  |  |  | 0.46 |  | 0.528 | 0.51 | 0.422 |  |  |  |  | 
